System: AcOSα-PaFSα
Format: biochemical, Aspergillus clavatus
Conditions: read-out: AcOSα-PaFSα; labelled compound; 25 mM HEPES pH 8.0, 200 mM NaCl, 5 mM MgCl2, 30 °C; cyclase domain

CC(C)=CCC/C(C)=C/CC/C(C)=C/CC/C(C)=C/COP(=O)(O)OP(=O)(O)O [GGPP]
Km: 0.038 ± 0.01 µM

— paper PMC5474940 (Biochemistry, 2017)
